Patent publication US20240246968A1, “SMALL MOLECULE INHIBITORS OF KRAS G12C MUTANT” (Merck Sharp & Dohme LLC, priority 2021, published 2024)

Tests used:
[1] = biological target: Gppcp-bound recombinant K-Ras4B G12C mutant protein (amino acids 1-169, C51S/C80L/C118S) (Homo sapiens, UniProt P01116, C118S/C51S/C80L/G12C); test: KRASG12C binding assay (LC-MS, compound binding rate); conditions: test compound final concentration 0.5 μM, 25° C., 1 hour
In short: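 Covalent adduct formation measured by deconvoluted intact-mass LC-MS after 1 h at 25 °C with compound at 0.5 μM final and 50 nM Gppcp-loaded KRAS G12C (residues 1-169, C51S/C80L/C118S). Buffer: TBS, 0.1 mM TCEP, 0.25 mM MgCl2, 50 μM Gppcp. Binding % = one-molecule adduct/(unbound + all adducts), binned A ≥80, B 60–80, C 40–60, D 20–40, E <20.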

[2] = biological target: T1, interaction between recombinant K-Ras4B G12C mutant protein and cRAF RAS-binding domain (cRAF-RBD) (Homo sapiens, UniProt P01116, G12C); test: Inhibitory activity on interaction between KRAS G12C and cRAF (Alpha technology); type: biochemical; conditions: GMPPNP-bound KRAS G12C incubated with compound at 25° C. for 1 hour, then cRAF-RBD; Alpha signal
T1 construct: made in house; host or cells: E. coli
In short: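 Alpha readout of cRAF-RBD (aa 50-132) binding to KRAS G12C (aa 1-169) after 1.5 h RT, following 1 h, 25° C compound preincubation with GMPPNP-bound protein (pH 7.5 Tris, 1 mM MgCl2, TCEP, Tween 20). IC50 fitted from titrations, with GDP-bound KRAS as 100% and DMSO as 0% inhibition.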

[3] = system: MIA PaCa-2 cells; test: Growth inhibition activity on KRAS-G12C mutant cell line (MIA PaCa-2), CellTiter-Glo 3D; type: cell-based, human; conditions: MIA PaCa-2, 3-day culture with compound
In short: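 Luminescence readout (CellTiter-Glo 3D) after 3 days of compound treatment at 37 °C, 5% CO2, 0.2% final DMSO, gave % growth inhibition versus no-compound wells, from which IC50 (nM) was derived; cells had been plated in 10% FBS RPMI1640 one day before dosing.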

SMILES | binding rate [1] | IC50 [2] [nM] | IC50 [3] [nM] | IC50 ([3]; Homo sapiens, MIA PaCa-2, 72 h) [nM]
CCc1cc2c(nc(C)n2C)c(Cl)c1-c1cccn2c(C(=O)c3cc(F)c(NC(=O)/C=C/CN[C@H]4CC[C@H](OC)CC4)c(F)c3)ccc12 (single isomer, unassigned) [Example 22-2, (E)-N-(4-(8-(4-chloro-6-ethyl-1,2-dimethyl-1H-benzo[d]imidazol-5-yl)indolizine-3-carbonyl)-2,6-difluorophenyl)-4-(((1r,4r)-4-methoxycyclohexyl)amino)but-2-enamide] | A (A binding rate of 80% or more is rated “A”) | 110 | 410 | 
COc1nc2c(cc1-c1cccn3c(C(=O)c4cc(F)c(NC(=O)/C=C/CN[C@H]5CC[C@H](OC)CC5)c(F)c4)ccc13)nc(C)n2C [Example 33, (E)-N-(2,6-difluoro-4-(8-(5-methoxy-2,3-dimethyl-3H-imidazo[4,5-b]pyridin-6-yl)indolizine-3-carbonyl)phenyl)-4-(((1r,4r)-4-methoxycyclohexyl)amino)but-2-enamide] | A (A binding rate of 80% or more is rated “A”) | 75 |  | 140
COc1cc2c(nc(C)n2C)c(F)c1-c1cccn2c(C(=O)c3cc(F)c(NC(=O)/C=C/CN[C@H]4CC[C@H](OC)CC4)c(F)c3)ccc12 [Example 44] | A (A binding rate of 80% or more is rated “A”) | 22 |  | 23
CO[C@H]1CC[C@H](NC/C=C/C(=O)Nc2c(F)cc(C(=O)c3ccc4c(-c5c(C(F)(F)F)cc6c(nc(C)n6C)c5Cl)cccn34)cc2F)CC1 (single isomer, unassigned) [Example 32-1, (E)-N-(4-(8-(4-chloro-1,2-dimethyl-6-(trifluoromethyl)-1H-benzo[d]imidazol-5-yl)indolizine-3-carbonyl)-2,6-difluorophenyl)-4-(((1r,4r)-4-methoxycyclohexyl)amino)but-2-enamide] | A (A binding rate of 80% or more is rated “A”) | 21 | 14 | 
Cc1nc2cc(-c3cccn4c(C(=O)c5cc(F)c(NC(=O)/C=C/CNC6CCOC(C)(C)C6)c(F)c5)ccc34)c(C(F)(F)F)cc2n1C (stereo not drawn) [Example 66] | A (A binding rate of 80% or more is rated “A”) | 70 |  | 97
C=Cc1cc(C(=O)c2cc(F)c(NC(=O)/C=C/CNC3(C)CC3)c(F)c2)n2cccc(-c3c(OC)cc4c(nc(C)n4C)c3F)c12 (single isomer, unassigned) [Example 111-1, (E)-N-(2,6-difluoro-4-(8-(4-fluoro-6-methoxy-1,2-dimethyl-1H-benzo[d]imidazol-5-yl)-1-vinylindolizine-3-carbonyl)phenyl)-44-((1-methylcyclopropyl)amino)but-2-enamide] | A (A binding rate of 80% or more is rated “A”) | 8.71 | 46.5 | 
Cn1cnc2cc(-c3cccn4c(C(=O)c5cc(F)c(NC(=O)/C=C/CNC6(C)CCOCC6)c(F)c5)ccc34)c(C(F)(F)F)cc21 [Example 11, (E)-N-(2,6-difluoro-4-(8-(1-methyl-6-(trifluoromethyl)-1H-benzo[d]imidazol-5-yl)indolizine-3-carbonyl)phenyl)-4-((4-methyltetrahydro-2H-pyran-4-yl)amino)but-2-enamide] | A (A binding rate of 80% or more is rated “A”) | 21 |  | 68
CO[C@H]1CC[C@H](NC/C=C/C(=O)Nc2c(F)cc(C(=O)c3ccc4c(-c5cc6nc(C)n(C)c6cc5C(F)(F)F)cccn34)cc2F)CC1 [Example 2, (E)-N-(4-(8-(1,2-dimethyl-6-(trifluoromethyl)-1H-benzo[d]imidazol-5-yl)indolizine-3-carbonyl)-2,6-difluorophenyl)-4-(((1r,4r)-4-methoxycyclohexyl)amino)but-2-enamide] | A (A binding rate of 80% or more is rated “A”) | 60 |  | 57
CO[C@H]1CC[C@H](NC/C=C/C(=O)Nc2c(F)cc(C(=O)c3ccc4c(-c5c(C6CC6)cc6c(nc(C)n6C)c5Cl)cccn34)cc2F)CC1 [Example 38] | A (A binding rate of 80% or more is rated “A”) | 77 |  | 78
CO[C@H]1CC[C@H](NC/C=C/C(=O)Nc2c(F)cc(C(=O)c3cc(C(N)=O)c4c(-c5c(C)cc6c(nc(C)n6C)c5Cl)cccn34)cc2F)CC1 [Example 107, 8-(4-chloro-1,2,6-trimethyl-1H-benzo[d]imidazol-5-yl)-3-(3,5-difluoro-4-((E)-4-(((1r,4r)-4-methoxycyclohexyl)amino)but-2-enamido)benzoyl)indolizine-1-carboxamide] | A (A binding rate of 80% or more is rated “A”) | 37.6 |  | 569
Cc1nc2c(Cl)c(-c3cccn4c(C(=O)c5cc(F)c(NC(=O)/C=C/CNC(C)(C)C)c(F)c5)ccc34)c(C(F)(F)F)cc2n1C (single isomer, unassigned) [Example 56-1, (E)-4-(tert-butylamino)-N-(4-(8-(4-chloro-1,2-dimethyl-6-(trifluoromethyl)-1H-benzo[d]imidazol-5-yl)indolizine-3-carbonyl)-2,6-difluorophenyl)but-2-enamide] | A (A binding rate of 80% or more is rated “A”) | 450 | 1100 | 
Cn1cnc2cc(-c3cccn4c(C(=O)c5cc(F)c(NC(=O)/C=C/CNC6CCOCC6)c(F)c5)ccc34)c(C(F)(F)F)cc21 [Example 9, (E)-N-(2,6-difluoro-4-(8-(1-methyl-6-(trifluoromethyl)-1H-benzo[d]imidazol-5-yl)indolizine-3-carbonyl)phenyl)-4-((tetrahydro-2H-pyran-4-yl)amino)but-2-enamide] | A (A binding rate of 80% or more is rated “A”) | 27 |  | 82
CO[C@H](C)c1nc2c(Cl)c(-c3cccn4c(C(=O)c5cc(F)c(NC(=O)/C=C/CNC(C)(C)C)c(F)c5)ccc34)c(C)cc2n1C (single isomer, unassigned) [Example 49] | A (A binding rate of 80% or more is rated “A”) | 19 | 49 | 
Cc1nc2cc(-c3cccn4c(C(=O)c5cc(F)c(NC(=O)/C=C/CNC6(CO)CCOCC6)c(F)c5)ccc34)c(C(F)(F)F)cc2n1C [Example 70, (E)-N-(4-(8-(1,2-dimethyl-6-(trifluoromethyl)-1H-benzo[d]imidazol-5-yl)indolizine-3-carbonyl)-2,6-difluorophenyl)-4-((4-(hydroxymethyl)tetrahydro-2H-pyran-4-yl)amino)but-2-enamide] | A (A binding rate of 80% or more is rated “A”) | 70 |  | 210
COCc1cc(C(=O)c2cc(F)c(NC(=O)/C=C/CN[C@H]3CC[C@H](OC)CC3)c(F)c2)n2cccc(-c3c(C)cc4c(nc(C)n4C)c3Cl)c12 [Example 103, (E)-N-(4-(8-(4-chloro-1,2,6-trimethyl-1H-benzo[d]imidazol-5-yl)-1-(methoxymethyl)indolizine-3-carbonyl)-2,6-difluorophenyl)-4-(((1r,4r)-4-methoxycyclohexyl)amino)but-2-enamide] | A (A binding rate of 80% or more is rated “A”) | 32 |  | 74.8
COc1cc2c(nc(C)n2C)c(F)c1-c1cccn2c(C(=O)c3cc(F)c(NC(=O)/C=C/CNC(C)(C)C)c(F)c3)ccc12 [Example 46, (E)-4-(tert-butylamino)-N-(2,6-difluoro-4-(8-(4-fluoro-6-methoxy-1,2-dimethyl-1H-benzo[d]imidazol-5-yl)indolizine-3-carbonyl)phenyl)but-2-enamide] | A (A binding rate of 80% or more is rated “A”) | 30 |  | 24
CO[C@H](C)c1nc2c(Cl)c(-c3cccn4c(C(=O)c5cc(F)c(NC(=O)/C=C/CN[C@H]6CC[C@H](OC)CC6)c(F)c5)ccc34)c(C)cc2n1C (single isomer, unassigned) [Example 48] | A (A binding rate of 80% or more is rated “A”) | 110 | 230 | 
COc1c(-c2cccn3c(C(=O)c4cc(F)c(NC(=O)/C=C/CNC5CCOCC5)c(F)c4)ccc23)c(C(F)(F)F)cc2c1nc(C)n2C (single isomer, unassigned) [Example 61-1, (E)-N-(2,6-difluoro-4-(8-(4-methoxy-1,2-dimethyl-6-(trifluoromethyl)-1H-benzo[d]imidazol-5-yl)indolizine-3-carbonyl)phenyl)-4-((tetrahydro-2H-pyran-4-yl)amino)but-2-enamide] | B (a binding rate of 60% or more and less than 80% is rated “B”) | 1900 | 2300 | 
